Results on six compounds are retold here after US20150306108A1, “COMPOSITIONS OF ALDH1A1 INHIBITORS AND METHODS OF USE IN TREATING CANCER” (Indiana University Research & Technology Corporation, priority 2014, published 2015).

Where two headings read alike, the source gives them in different places.

Assay [1] has as its target T1, ALDH1A2 (Homo sapiens, UniProt O94788).
T1 sequence (O94788 1-518): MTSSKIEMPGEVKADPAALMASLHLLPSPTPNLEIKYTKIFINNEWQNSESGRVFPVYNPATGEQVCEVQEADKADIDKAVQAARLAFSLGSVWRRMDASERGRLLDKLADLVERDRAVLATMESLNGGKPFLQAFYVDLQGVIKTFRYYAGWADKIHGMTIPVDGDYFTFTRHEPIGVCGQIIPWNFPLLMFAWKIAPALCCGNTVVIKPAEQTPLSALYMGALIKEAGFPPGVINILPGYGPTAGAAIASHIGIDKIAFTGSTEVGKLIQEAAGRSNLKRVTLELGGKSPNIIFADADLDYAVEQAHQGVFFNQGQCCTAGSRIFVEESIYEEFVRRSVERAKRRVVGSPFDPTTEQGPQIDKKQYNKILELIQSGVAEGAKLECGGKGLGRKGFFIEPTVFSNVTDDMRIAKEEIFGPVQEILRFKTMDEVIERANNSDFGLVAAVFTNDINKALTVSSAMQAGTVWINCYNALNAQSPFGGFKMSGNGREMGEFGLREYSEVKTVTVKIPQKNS
As to the kind of experiment: biochemical. As to conditions: for effect on aldehyde oxidation catalyzed by ALDH1A2: 100 μM compound (CM037: concentrations up to 100 μM). The class given is biochemical.

Assay [2] concerns the target T2, ALDH1A3 (Homo sapiens, UniProt P47895).
T2 sequence (P47895 1-512): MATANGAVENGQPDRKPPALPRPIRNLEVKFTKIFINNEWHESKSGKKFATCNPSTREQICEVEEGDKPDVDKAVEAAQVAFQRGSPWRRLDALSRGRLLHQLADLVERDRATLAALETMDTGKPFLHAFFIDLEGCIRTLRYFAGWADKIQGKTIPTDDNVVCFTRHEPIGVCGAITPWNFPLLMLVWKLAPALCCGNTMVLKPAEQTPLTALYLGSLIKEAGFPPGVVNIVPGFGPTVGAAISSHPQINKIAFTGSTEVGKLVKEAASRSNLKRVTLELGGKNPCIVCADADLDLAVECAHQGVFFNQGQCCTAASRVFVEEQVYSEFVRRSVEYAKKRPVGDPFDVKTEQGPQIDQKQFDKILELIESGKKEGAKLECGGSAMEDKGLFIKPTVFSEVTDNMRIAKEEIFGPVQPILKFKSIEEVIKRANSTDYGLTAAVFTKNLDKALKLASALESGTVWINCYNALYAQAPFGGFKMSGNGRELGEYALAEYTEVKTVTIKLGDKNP
As to the kind of experiment: ALDH1A3 aldehyde oxidation activity assay. The class given is biochemical. As to conditions: for effect on aldehyde oxidation catalyzed by ALDH1A3: 100 μM compound (CM037: concentrations up to 100 μM).

The mark [3] stands for this setting: Table 4, NI/NI(A) at 100 μM compound, read-out: IC50 in μM (SE) ALDH1A2.
The mark [4] stands for this setting: Table 4, NI/NI(A) at 100 μM compound, read-out: IC50 in μM (SE) ALDH1A3.

One may read the IC50 as the point on the concentration scale where inhibition reaches its midpoint. With `CC(C)CCn1c(CN2CCN(C(=O)c3ccco3)CC2)nc2c1c(=O)n(C)c(=O)n2C` [CM026], in assay [1] (20 μM compound), the “effect on ALDH1A2” value is given as “no effect”. Besides, the “effect on aldehyde oxidation catalyzed by ALDH1A2” value in assay [1] is “modestly increased”. Further, the IC50 in assay [1] (setting [3]) was more than 100 µM. In assay [2] (20 μM compound), the “effect on ALDH1A3” value is reported as “no effect”. For the same compound, the “effect on aldehyde oxidation catalyzed by ALDH1A3” value in assay [2] is reported as “modestly increased”.

As to `Cn1c(=O)c2c(nc(CN3CCC(C(N)=O)CC3)n2CCCc2ccccc2)n(C)c1=O` [CM028], the IC50 in assay [1] (setting [3]) and in assay [2] (setting [4]) was more than 100 µM in each case.

Turning to `CCOC(=O)CSc1nc2c(sc3ccccc32)c(=O)n1CCCN1CCCC1` [CM037, ethyl-2-((4-oxo-3-(3-(pryrrolidin-1-yl)propyl)-3,4-dihydrobenzo[4,5]thioeno[3,2-d]pyrimidin-2-yl)thio)acetate], in assay [1], the “effect on aldehyde oxidation catalyzed by ALDH1A2” value is recorded as “no effect”. Further, in assay [2], the “effect on aldehyde oxidation catalyzed by ALDH1A3” value is “no effect”.

Take `CC(C)CCn1c(CN2CCOCC2)nc2c1c(=O)n(C)c(=O)n2C` [CM056]: the half-inhibitory concentration (IC50) in assay [1] (setting [3]) and in assay [2] (setting [4]) was more than 100 µM each time.

With `Cn1c(=O)c2c(ncn2C)n(C)c1=O` [Caffeine, reference compound], the half-inhibitory concentration (IC50) in assay [1] (setting [3]) and in assay [2] (setting [4]) was more than 100 µM in each case.

Consider `Cn1c(=O)c2[nH]cnc2n(C)c1=O` [Theophylline, reference compound], for which the IC50 in assay [1] and in assay [2] was more than 100 µM each time.
